Laboratory results from ChEMBL document CHEMBL1142541, “3D-QSAR studies of heterocyclic quinones with inhibitory activity on vascular smooth muscle cell proliferation using pharmacophore-based alignment” (Bioorg Med Chem, 2008).

assay: Inhibition of PDGF-induced proliferation in RAOSMC; parameters: species or system Rattus norvegicus

Row | Compound | IC50 [µM] | pIC50
1 | O=C1C(Cl)=C(Nc2ccccc2)C(=O)c2[nH]cnc21 | 5.5 | 5.26
2 | O=C1C(Cl)=C(Nc2cccc(Br)c2)C(=O)c2[nH]cnc21 | 1.6 | –
3 | O=C1C(Br)=C(Nc2ccc(F)cc2)C(=O)c2[nH]cnc21 | 1 | 6
4 | O=C1C(Br)=C(Nc2cccc(I)c2)C(=O)c2[nH]cnc21 | 2.5 | –
5 | Cc1nc2c([nH]1)C(=O)/C(=N/c1ccc(F)c(F)c1F)C(Cl)=C2O | 0.8 | –
6 | Cc1nc2c([nH]1)C(=O)/C(=N/c1ccccc1)C(Cl)=C2O | 0.8 | –
7 | Cc1ccc(NC2=C(Br)C(=O)c3nc[nH]c3C2=O)cc1 | 1 | –
8 | Cc1nc2c([nH]1)C(=O)/C(=N/c1cccc(Br)c1)C(Cl)=C2O | 1 | –
9 | Cc1nc2c([nH]1)C(=O)/C(=N/c1ccc(F)cc1)C(Cl)=C2O | 3 | –
10 | O=C1C(Cl)=C(Nc2ccccc2)C(=O)c2[nH]c(C(F)(F)F)nc21 | 50 | –
11 | Cc1nc2c([nH]1)C(=O)/C(=N/c1cccc(Cl)c1)C(Cl)=C2O | 0.9 | –
12 | O=C1C(Cl)=C(Nc2cccc(Cl)c2)C(=O)c2[nH]cnc21 | 1.4 | –
13 | O=C1C(Cl)=C(Nc2cccc(I)c2)C(=O)c2[nH]cnc21 | 1.3 | –
14 | O=C1C(Br)=C(Nc2ccc(Cl)cc2)C(=O)c2[nH]cnc21 | 4 | –
15 | O=C1C(Br)=C(Nc2ccccc2)C(=O)c2[nH]cnc21 | 1.1 | –
16 | O=C1C(Cl)=C(Nc2ccc(I)cc2)C(=O)c2[nH]c(C(F)(F)F)nc21 | 25 | –
17 | O=C1C(Cl)=C(Nc2ccc(Cl)cc2)C(=O)c2[nH]c(C(F)(F)F)nc21 | 15 | 4.82
18 | Cc1ccc(NC2=C(Cl)C(=O)c3nc(C(F)(F)F)[nH]c3C2=O)cc1 | 40 | –
19 | O=C1C(Cl)=C(Nc2ccc(I)cc2)C(=O)c2[nH]cnc21 | 1.3 | 5.89
20 | O=C1C(Cl)=C(Nc2ccc(F)cc2)C(=O)c2[nH]c(C(F)(F)F)nc21 | 12 | –
21 | Cc1nc2c([nH]1)C(=O)/C(=N/c1ccc(I)cc1)C(Cl)=C2O | 1 | –

Row | Compound | IC50 [µM] | pIC50
22 | O=C1C(Cl)=C(Nc2ccc(F)cc2)C(=O)c2[nH]cnc21 | 1.2 | –
23 | O=C1C(Cl)=C(Nc2ccc(OC(F)(F)F)cc2)C(=O)c2[nH]c(-c3ccccn3)nc21 | 6 | –
24 | O=C1C(Cl)=C(Nc2ccc(F)cc2)C(=O)c2[nH]c(-c3ccncc3)nc21 | 50 | –
25 | O=C1C=C(Nc2ccc(Br)cc2)C(=O)c2[nH]c(-c3ccccn3)nc21 | 12 | –
26 | O=C1C=C(Nc2ccc(Cl)cc2)C(=O)c2[nH]c(-c3ccccn3)nc21 | 13 | –
27 | O=C1C=C(Nc2ccc(I)cc2)C(=O)c2[nH]c(-c3ccccn3)nc21 | 20 | –
28 | Cc1nc2c([nH]1)C(=O)/C(=N/c1ccc(F)cc1F)C(Cl)=C2O | 1.2 | –
29 | Cc1ccc(NC2=C(Cl)C(=O)c3nc[nH]c3C2=O)cc1 | 1.4 | –
30 | O=C1C(Cl)=C(Nc2ccc(C(F)(F)F)cc2)C(=O)c2[nH]cnc21 | 2.5 | 5.6
31 | O=C1C(Cl)=C(Nc2ccc(C(F)(F)F)cc2)C(=O)c2[nH]c(C(F)(F)F)nc21 | 20 | –
32 | Cc1ccc(NC2=C(Cl)C(=O)c3nc(C)[nH]c3C2=O)cc1 | 0.8 | –
33 | Cc1nc2c([nH]1)C(=O)/C(=N/c1ccc(Cl)cc1)C(Cl)=C2O | 2.8 | 5.55
34 | COc1ccc(NC2=C(Cl)C(=O)c3nc(-c4ccncc4)[nH]c3C2=O)cc1 | 50 | 4.3
35 | O=C1C(Cl)=C(Nc2ccc(F)cc2)C(=O)c2[nH]c(-c3cccnc3)nc21 | 21 | –
36 | O=C1C(Cl)=C(Nc2ccc(F)c(F)c2)C(=O)c2[nH]cnc21 | 1.1 | –
37 | Cc1nc2c([nH]1)C(=O)/C(=N/c1ccc(Cl)cc1Cl)C(Cl)=C2O | 0.8 | –
38 | O=C1C(Br)=C(Nc2ccc(C(F)(F)F)cc2)C(=O)c2[nH]cnc21 | 3.1 | –
39 | Cc1nc2c([nH]1)C(=O)/C(=N/c1cccc(Cl)c1Cl)C(Cl)=C2O | 0.6 | –
40 | Cc1nc2c([nH]1)C(=O)/C(=N/c1ccc(C(F)(F)F)cc1)C(Cl)=C2O | 0.6 | –
41 | Cc1cccc(NC2=C(Cl)C(=O)c3nc(-c4ccncc4)[nH]c3C2=O)c1 | 60 | –
42 | O=C1C=C(Nc2ccc(OC(F)(F)F)cc2)C(=O)c2[nH]c(-c3ccccn3)nc21 | 20 | –

Row | Compound | IC50 [µM] | pIC50
43 | O=C1C(Cl)=C(Nc2cccc(Cl)c2)C(=O)c2[nH]c(-c3ccccn3)nc21 | 3.5 | –
44 | Cc1ccc(NC2=C(Cl)C(=O)c3nc(-c4cccnc4)[nH]c3C2=O)cc1 | 45 | 4.35
45 | O=C1C(Cl)=C(Nc2cccc(F)c2)C(=O)c2[nH]c(-c3ccncc3)nc21 | 19 | –
46 | O=C1C(Cl)=C(Nc2cccc(Br)c2)C(=O)c2[nH]c(-c3ccncc3)nc21 | 20 | 4.7
47 | CCOc1ccc(NC2=C(Cl)C(=O)c3nc(-c4cccnc4)[nH]c3C2=O)cc1 | 42 | –
48 | O=C1C(Cl)=C(Nc2ccc(OC(F)(F)F)cc2)C(=O)c2nc(-c3ccccn3)c(-c3ccccn3)nc21 | 1 | –
49 | O=C1C(Cl)=C(Nc2ccc(F)cc2F)C(=O)c2[nH]cnc21 | 2.7 | –
50 | Cc1nc2c(nc1C)C(=O)C(Nc1ccc(F)cc1)=CC2=O | 3.1 | 5.51
51 | Cc1nc2c(nc1C)C(=O)C(Nc1ccc(Cl)cc1)=CC2=O | 3.3 | –
52 | Cc1nc2c(nc1C)C(=O)C(Nc1ccc(Br)cc1)=CC2=O | 1.1 | –
53 | O=C1C(Cl)=C(Nc2ccc(Br)cc2)C(=O)c2[nH]cnc21 | 2 | –
54 | O=C1C(Cl)=C(Nc2ccc(Cl)cc2)C(=O)c2nc(-c3ccccn3)c(-c3ccccn3)nc21 | 1.5 | 5.82
55 | O=C1C(Cl)=C(Nc2ccc(O)cc2)C(=O)c2nc(-c3ccccn3)c(-c3ccccn3)nc21 | 5.5 | 5.26
56 | Cc1nc2c([nH]1)C(=O)C(Nc1ccc(OC(F)(F)F)cc1)=C(Cl)C2=O | 3 | –
57 | O=C1C(Cl)=C(Nc2cc(F)c(F)c(F)c2)C(=O)c2nc(-c3ccccn3)c(-c3ccccn3)nc21 | 1.2 | –
58 | N#Cc1ccc(NC2=C(Cl)C(=O)c3nc[nH]c3C2=O)cc1 | 2.7 | –
59 | Cc1nc2c(nc1C)C(=O)C(Nc1cc(F)cc(F)c1)=CC2=O | 4.5 | –
60 | O=C1C(Cl)=C(Nc2ccccc2)C(=O)c2nc(-c3ccccn3)c(-c3ccccn3)nc21 | 3.1 | –
61 | Cc1nc2c(nc1C)C(=O)C(Nc1ccc(Cl)c(Cl)c1)=CC2=O | 3.8 | –
62 | O=C1C(Cl)=C(Nc2ccc(F)cc2)C(=O)c2nc(-c3ccccn3)c(-c3ccccn3)nc21 | 1 | –
63 | O=C1C(Br)=C(Nc2cccc(Br)c2)C(=O)c2[nH]cnc21 | 5.3 | –

Row | Compound | IC50 [µM] | pIC50
64 | O=C1C(Cl)=C(Nc2ccc(OC(F)(F)F)cc2)C(=O)c2[nH]cnc21 | 2.5 | –
65 | O=C1C(Cl)=C(Nc2cccc(Br)c2)C(=O)c2[nH]c(-c3ccccn3)nc21 | 20 | –
66 | CCOc1ccc(NC2=C(Cl)C(=O)c3nc(-c4ccncc4)[nH]c3C2=O)cc1 | 75 | –
67 | CCOc1ccc(NC2=CC(=O)c3nc(C)c(C)nc3C2=O)cc1 | 1.5 | –
68 | O=C1C(Br)=C(Nc2cccc(C(F)(F)F)c2)C(=O)c2[nH]cnc21 | 3 | –
69 | CCc1ccc(NC2=C(Cl)C(=O)c3nc(C)[nH]c3C2=O)cc1 | 3 | 5.52
70 | O=C1C(Cl)=C(Nc2ccccc2F)C(=O)c2[nH]cnc21 | 1.7 | 5.77
71 | O=C1C(Cl)=C(Nc2cccc(Cl)c2)C(=O)c2[nH]c(-c3ccncc3)nc21 | 31 | –
72 | O=C1C(Cl)=C(Nc2ccc(Cl)c(Cl)c2)C(=O)c2[nH]c(-c3ccncc3)nc21 | 13 | –
73 | O=C1C(Cl)=C(Nc2ccc(Cl)c(Cl)c2)C(=O)c2nc(-c3ccccn3)c(-c3ccccn3)nc21 | 1 | –
74 | O=C1C(Cl)=C(Nc2ccc(Cl)c(F)c2)C(=O)c2[nH]c(-c3ccncc3)nc21 | 25 | 4.6
75 | COc1ccc(NC2=C(Cl)C(=O)c3nc(-c4ccccn4)c(-c4ccccn4)nc3C2=O)cc1 | 3.5 | 5.46
76 | O=C1C(Br)=C(Nc2cccc(Cl)c2)C(=O)c2[nH]cnc21 | 3 | –
77 | O=C1C(Cl)=C(Nc2ccc(Br)cc2)C(=O)c2[nH]c(-c3ccncc3)nc21 | 60 | –
78 | O=C1C(Cl)=C(Nc2ccc(Cl)cc2)C(=O)c2[nH]c(-c3cccnc3)nc21 | 20 | –
79 | O=C1C(Cl)=C(Nc2ccc(Br)cc2)C(=O)c2[nH]c(-c3ccccn3)nc21 | 6.5 | –
80 | O=C1C(Cl)=C(Nc2ccc(Cl)cc2)C(=O)c2[nH]c(-c3ccccn3)nc21 | 12 | –
81 | CCOc1ccc(NC2=CC(=O)c3nc(-c4ccccn4)[nH]c3C2=O)cc1 | 6.5 | –
